According to US7956085B2, “1,4-benzothiepine 1,1-dioxide derivatives substituted by benzyl radicals, method for their preparation, pharmaceuticals comprising these compounds, and the use thereof” (Sanofi-Aventis Deutschland GmbH, priority 2006, dated 2011):

These compounds were tested against T1, human IBAT (Homo sapiens, UniProt Q12908) (assay: In vitro IBAT inhibition assay: IBAT-dependent uptake of [3H]-taurocholic acid into CHO-hIBAT cells). Settings: 10 μM taurocholic acid, 60 min at room temperature, read-out: IC-50 (human IBAT).
T1 construct: Bases 599 to 1645 correspond to the complete coding region of human IBAT; expressed in transfected cells
T1 sequence (Q12908 1-348): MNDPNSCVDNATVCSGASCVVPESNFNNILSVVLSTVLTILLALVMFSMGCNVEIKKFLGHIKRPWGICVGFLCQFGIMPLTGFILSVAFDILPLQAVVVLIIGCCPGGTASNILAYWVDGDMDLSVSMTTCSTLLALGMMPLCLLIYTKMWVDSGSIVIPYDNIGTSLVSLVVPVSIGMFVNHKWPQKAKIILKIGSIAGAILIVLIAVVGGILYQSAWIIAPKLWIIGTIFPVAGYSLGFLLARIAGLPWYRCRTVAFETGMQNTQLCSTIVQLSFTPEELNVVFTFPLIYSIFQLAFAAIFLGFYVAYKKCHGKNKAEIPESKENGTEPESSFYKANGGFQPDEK
Assay type: cell-based
Excerpt: Preparation and Procedure for the In Vitro IBAT Inhibition Assay:
1. Cloning of an Expression Vector for Human IBAT
The cDNA (complementary deoxyribonucleic acid) of human IBAT was cloned by standard methods of molecular biology as described for example in Molecular Cloning: A Laboratory Manual by Joseph Sambrook and David Russell, and introduced into the pcDNA1 vector from Invitrogen. […] Bases 599 to 1645 correspond to the complete coding region of human IBAT.
2. Preparation of a Recombinant Cell Line with Constitutive Expression of Human IBAT
The expression vector for human IBAT was introduced by stable transfection into CHO (chinese hamster ovary) cells. To select single cell clones, 400 μg/ml Geneticin was added to the cell culture medium (Ham's F12 medium supplemented with 10% fetal calf serum, 100 units/ml penicillin, 100 units/ml streptomycin). The functionality of the single cell clones resulting from the selection was assayed via their uptake activity for radiolabeled taurocholic acid ([^3H]-TCA). The cell clone with the highest uptake activity for [^3H]-TCA, referred to hereinafter as CHO-hIBAT, was selected for the further assays and further cultured in the presence of 400 μg/ml Geneticin.
3. Measurement of The Inhibitory Effect of The Compound of The Invention on The IBAT-Dependent Uptake of Taurocholic Acid into Cells
CHO-hIBAT cells were seeded in a concentration of 40 000 cells per well in poly-D-lysine-coated 96-well plates in cell culture medium and cultured for 24 h. The cells were then washed once with sodium-free transport assay buffer (140 mM choline chloride, 2 mM potassium chloride, 1 mM magnesium chloride, 1 mM calcium chloride, 10 mM HEPES/Tris, pH 7.5) and subsequently incubated either with sodium-free transport assay buffer as negative control or with sodium-containing transport assay buffer (140 mM sodium chloride, 2 mM potassium chloride, 1 mM magnesium chloride, 1 mM calcium chloride, 10 mM HEPES/Tris, pH 7.5) as positive control at room temperature for 30 min. At the same time, the assay wells were also incubated in the presence of the compound to be investigated in varying concentration in sodium-containing transport assay buffer at room temperature for 30 min. The test substances were appropriately diluted in transport assay buffer (40 μl/well) starting from a 10 mM stock solution in dimethyl sulfoxide. The assay was then started by adding 10 μl/well of a mixture of radiolabeled taurocholic acid ([^3H]-TCA) and unlabeled taurocholic acid. The final concentration of taurocholic acid in the assay was 10 μM. After an incubation time of 60 min at room temperature, the reaction was stopped by adding 100 μl/well of sodium-free transport assay buffer (4° C.), and each well was washed three times with sodium-free transport assay buffer. Finally, 100 μl of scintillation fluid were added to each well, and the radioactivity taken up into the cells was determined in a MicroBeta Scintillation Microplate Reader from Wallac.
The half-maximum inhibitory effect of the test compound (IC50 value, inhibitory concentration 50) was determined in the following way: • 1. Determination of the value for 0% inhibition. This is the measurement in the absence of substance, measured in sodium-containing transport assay buffer. • 2. Determination of the value for 100% inhibition. This is the measurement in the absence of substance, measured in sodium-free transport assay buffer. • 3. Calculation of the percentage inhibitions of those measurements carried out in the presence of various concentrations of the compound to be investigated. It was then possible to find therefrom the concentration of the compound which reduces the uptake of taurocholic acid by 50% (IC50 value).

In order of rising IC50:
1. CCCC[C@]1(CC)CS(=O)(=O)c2ccc(N(C)C)cc2[C@@H](c2cccc(NC(=O)N[C@@H]3O[C@H](COS(=O)(=O)O)[C@@H](OS(=O)(=O)O)[C@H](OCc4ccccc4)[C@H]3O)c2)[C@H]1O [Example 5]  2 nM
2. CCCC[C@]1(CC)CS(=O)(=O)c2ccc(N(C)C)cc2[C@@H](c2cccc(NC(=O)N[C@@H]3O[C@H](COS(=O)(=O)O)[C@@H](O)[C@H](OCc4ccccc4)[C@H]3O)c2)[C@H]1O [Example 4]  2.4 nM
3. CCCC[C@]1(CC)CS(=O)(=O)c2ccc(N(C)C)cc2[C@@H](c2cccc(NC(=O)N[C@@H]3O[C@H](COCc4ccccc4)[C@@H](O)[C@H](OCc4ccccc4)[C@H]3O)c2)[C@H]1O [Example 3]  3.5 nM
4. CCCC[C@]1(CC)CS(=O)(=O)c2ccc(N(C)C)cc2[C@@H](c2cccc(NC(=O)N[C@@H]3O[C@H](CO)[C@@H](O)[C@H](OCc4ccccc4)[C@H]3O)c2)[C@H]1O [Example 1]  4.4 nM
5. CCCCC1(CCCC)CS(=O)(=O)c2ccc(N(C)C)cc2[C@@H](c2cccc(NC(=O)N[C@@H]3O[C@H](CO)[C@@H](O)[C@H](OCc4ccccc4)[C@H]3O)c2)[C@H]1O [Example 2]  6.9 nM
6. CCCCC1(CCCC)CS(=O)(=O)c2ccc(N(C)C)cc2[C@@H](c2cccc(NC(=O)N[C@@H]3O[C@H](COS(=O)(=O)O)[C@@H](O)[C@H](OCc4ccccc4)[C@H]3O)c2)[C@H]1O [Example 6]  10.7 nM
